# Assay results as given in US20250314644A1, “METHODS COMPRISING DETECTION OF ADP-HEPTOSE” (CHILDREN'S HOSPITAL MEDICAL CENTER, priority 2023, published 2025).
# Tested on: NF-κB in THP1 cells
# Assay: NF-κB signaling (immunoblot) and THP1-Blue NF-kB SEAP reporter
# Type: cell-based, human
# Experimental: Protein concentration was evaluated by bicinchoninic acid (BCA) assay (Pierce, Cat #23225). SDS sample buffer was added to the lysates and the proteins were separated by SDS-polyacrylamide gel electrophoresis, transferred to PVDF or nitrocellulose membranes (BIO-RAD, Cat #1620112), and analyzed by immunoblotting. […] Membranes were visualized using ECL Western Blotting Substrate (Pierce, #32106) or SuperSignal West Femto Substrate (Thermo Scientific, #34096), imaged on a BIO-RAD ChemiDoc Touch Imaging system and analyzed with Image lab software 6.0.1 (Biorad) or Image J (22930834).
# THP1-Blue NF-kB SEAP reporter cells (Cat no. thp-nkfb, Invivogen) were grown at 20,000 cells per well (200 μl) in a 96-well plate with the indicated agonists and inhibitors for 24 hours. […] The absorbance was read at 630 nm for a final readout. For analysis, media absorbance was subtracted, experimental values were normalized to vehicle control, and triplicates were averaged.
smiles,measurement,setting,value
"Nc1ncnc2c1ncn2[C@@H]1O[C@H](COP(=O)(O)OP(=O)(O)O[C@@H]2O[C@H]([C@H](O)CO)[C@@H](O)[C@H](O)[C@@H]2O)[C@@H](O)[C@H]1O [ADP-heptose, ADP-D-glycero-β-D-manno-heptose]",NF-kB activation,TIFA-deficient THP1 cells,unable to activate NF-kB
same,canonical NF-κB signaling and transcriptional activation,human leukemic cells (THP1),induce canonical NF-κB signaling and transcriptional activation
